{"source": "paper PMC10531915", "about": "“A High-Throughput Small-Angle X-ray Scattering Assay to Determine the Conformational Change of Plasminogen” (International Journal of Molecular Sciences, 2023)", "key": {"[1]": {"test_system": "Plg GII", "experiment": "HTP 96-well SAXS titration: ligand-induced closed-to-open conformational change of Plg GII; for Rg: values in Å", "format": "biochemical, human", "details": "for Plg conformational change (efficacy in words) / Rg: HTP SAXS; for Plg conformational change (efficacy in words): 0.5 mg/mL Plg, pH 7.4, 16 °C, MK12 up to 10 mM; for Kopen: concentration of ligand at which 50% of Plg GII is open, 0.5 mg/mL Plg GII, 100 mM sodium phosphate pH 7.4, 5% glycerol, 15–30 min incubation, 16 °C, Rg from SAXS, fit with Hill slope; for Fold (GII/GI) of Kopen: Kopen Plg GII / Kopen Plg GI; for Kopen for GII higher than for GI: Kopen Plg GII versus Plg GI; for Kopen of EACA relative to TXA, GII: EACA versus TXA; for Kopen fold lower than L-lysine: Kopen for L-lysine 7.47 ± 1.12 mM", "procedure": "An HTP assay to study the kinetics of Plg conversion from a closed to an open state was established for this work using Plg GII (see Section 4 and Figure 2).\n(§1) Figure 2 Overview of the high-throughput (HTP) kinetic studies of Plg conformational change. In this HTP assay, ligand-induced Plg conformational change is set up in a 96-well plate format. (a) Ligands at the study concentration are mixed with Plg and incubated for 30 min. (b,c) The samples flowed past the X-ray beam in a quartz capillary, and scattering images were collected. (d) The resulting 2D scattering profile is averaged and buffer subtracted. (e). Rg values are derived via Guinier analysis (f) and then normalized before plotting against ligand concentration. The plot is fitted to a multi-site binding model, and Kopen, the ligand concentration required to induce 50% open Plg, is derived. Kopen is a kinetic parameter indicative of ligand efficacy or stability of closed conformation.\n(§2) EACA, TXA, and L-lysine were purchased from Sigma-Aldrich (St Louis, MO, USA), whereas peptides MK12, NK55, and CK10 were purchased from GL Biochem (Shanghai, China). Solutions of EACA, TXA, and L-lysine (0.5–1.0 M) were prepared in ultrapure water. The peptide ligands are slightly acidic and therefore were dissolved in 0.1 M NH4OH with gentle sonication. MK12 and CK10 were prepared as 20 mM stock solution, and NK55 was prepared as a 625 μM stock solution.\n(§3) For the SEC-SAXS experiment, in-line size exclusion chromatography using a WTC-010S5 column (WYATT) with a co-flow setup was used. For the HTP assays, 1 mg/mL protein samples were mixed 1:1 (v/v) with effector solutions to a final volume of 50 μL in a 96-well plate and incubated for 15–30 min before data collection at 16 °C. The final protein concentration for these experiments was 0.5 mg/mL in the assay buffer unless otherwise specified.\nFor each sample, a matching buffer was used for background scatter subtraction. To minimize the effect of radiation damage, 50 μL samples were flowed past the X-ray beam in a 1.5 mm diameter quartz capillary at 4 μL.s^−1. Then, 15 to 20 2D scattering images were collected on a Pilatus 1M X-ray detector (Dectris, Baden-Daettwil, Swizerland) using 18 × 1 s exposures. The images were averaged, and the background was subtracted using the Scatterbrain software v.2.82 available at the Australian Synchrotron\nFor each titration series, the Rg values were normalized as follows: Normalized Rg=Rg− minimum Rg/maximum Rg− minimum Rg"}, "[2]": {"experiment": "SEC-SAXS and Guinier/P(r) analysis of Plg conformation", "format": "physicochemical, human", "details": "for Dmax (maximum diameter): P(r); for Rg (radius of gyration): SEC-SAXS, Guinier approximation", "procedure": "Plg was isolated and purified from human plasma from Red Cross Blood Bank Australia via three-step purification as previously described. Plg GI and GII were prepared with a TXA gradient (Figure S3). Closed Plg was prepared via exhaustive dialysis of purified protein into the assay buffer (100 mM sodium phosphate pH 7.4, 5% glycerol). Proteins were concentrated to 1 mg/mL in centrifugal filters (Merck Millipore, Burlington, MA, USA). The final filtrate was kept as a solvent blank for SAXS experiments.\nExperiments were performed at the Australian Synchrotron SAXS/WAXS beamline using a fixed energy of 12 keV and a camera length of 2.6 m.\nas §3\nAveraged SAXS data were processed with the ATSAS 2.7.2 software package (EMBL Hamburg, Germany). PRIMUS [33] was used for determining the radius of gyration (Rg) and protein molecular weight via Guinier approximation and the particle distance distribution function P(r) using indirect Fourier transform."}, "[3]": {"test_system": "Plg GI", "experiment": "HTP 96-well SAXS titration: ligand-induced closed-to-open conformational change of Plg GI", "format": "biochemical, human", "details": "for Kopen: concentration of ligand at which 50% of Plg GI is open, 0.5 mg/mL Plg, 100 mM sodium phosphate pH 7.4, 5% glycerol, 15–30 min incubation, 16 °C, Rg from SAXS", "procedure": "as §1\nThus, we also performed kinetics studies on GI and GII to verify this hypothesis using EACA and TXA in the HTP format (Figure S4, Table 1).\nas §2, §3\nFor each sample, a matching buffer was used for background scatter subtraction. To minimize the effect of radiation damage, 50 μL samples were flowed past the X-ray beam in a 1.5 mm diameter quartz capillary at 4 μL.s^−1. […]"}, "[4]": {"test_system": "Plg, mixed glycoform sample", "details": "cited from earlier work", "procedure": "To analyze the transition profiles of Plg recorded from the fully closed to the fully open forms, we fitted the kinetic data as follows: the Rg of Plg GII in 0 mM EACA (32 Å) was defined as closed. The Rg of Plg in 20 m ..."}, "[5]": {"details": "in vivo, up to, no reference given; cited from earlier work", "from_the_text": "Importantly, our data support the notion that these lysine analogues can potentially outcompete the binding of Plg to its binding proteins Plg-RKT and α2AP (Figure S6) at a therapeutic dosage in vivo (plasma ..."}, "[6]": {"test_system": "Plg", "experiment": "Plg activation by tPA with chromogenic substrate S-2251 (Kactivation)", "details": "Kactivation by tPA compared to Kopen; 0.25 μM Plg, 0.01 μM tPA, 1 h, 28 °C, 0.2 mM S-2251, A405 nm"}, "[7]": {"details": "open conformation, 10 mM EACA (Figure 1)"}}, "note": "Where “and” joins values, the source holds several entries; their conditions need not be identical. Equal values may be shown once. Entries after “also recorded” stand apart in the source; their conditions may differ. Throughout, for Dmax (maximum diameter): values in Å. Throughout, for Rg (radius of gyration): values in Å. Throughout, for Rg of closed Plg: values in Å. Throughout, for diameter of approximate spheroidal particle: values in Å.", "data": [{"molecule": "C139EQSKLFDSK147 [CK10, synthetic peptide corresponding to a C-terminal peptide of Plg-RKT]", "values": [{"measurement": "Plg conformational change (efficacy in words)", "setting": "[1]; Plg GII", "value": "highly efficacious"}, {"measurement": "Kopen", "setting": "[1]", "value": "0.73 ± 0.24", "unit": "mM"}]}, {"molecule": "NCCCC[C@H](N)C(=O)O", "note": "[L-lysine]", "values": [{"measurement": "Kopen fold relative to CK10", "setting": "[1]; L-lysine concentration required versus CK10, Plg GII", "value": "~ 10 fold"}, {"measurement": "Kopen fold relative to EACA", "setting": "[1]; L-lysine concentration required versus EACA, Plg GII", "value": "more than 20 fold"}, {"measurement": "Plg conformational change (efficacy in words)", "setting": "[1]; Plg GII", "value": "poor substrate"}, {"measurement": "Kopen", "setting": "[1]", "value": "7.47 ± 1.12", "unit": "mM"}]}, {"molecule": "441MEEDYPQFGSPK452 [MK12, peptide corresponding to the last 12 residues of α2AP]", "values": [{"measurement": "Plg conformational change (efficacy in words)", "setting": "[1]; Plg GII", "value": "did not observe any change in the SAXS profile of Plg GII; also recorded: could not detect any conformational change; also recorded: did not induce a conformational transition even at 10 mM; also recorded: not functional"}]}, {"molecule": "Plg GII: human plasminogen glycoform II, purified from human plasma", "values": [{"measurement": "conformational stability of closed form", "setting": "[1]; GII versus GI, from Kopen of EACA and TXA, listed as GII", "value": "more stable than that of GI"}, {"measurement": "Rg", "setting": "[1]; 0 mM EACA, defined as closed", "value": 32, "unit": "Å"}, {"measurement": "Rg", "setting": "[1]; 20 mM EACA, defined as open", "value": 49, "unit": "Å"}, {"measurement": "Dmax (maximum diameter)", "setting": "[2]; closed conformation (Figure 1)", "value": 105, "unit": "Å"}, {"measurement": "Dmax (maximum diameter)", "setting": "[2]; [7]", "value": 170, "unit": "Å"}, {"measurement": "diameter of approximate spheroidal particle", "setting": "[2]; Porod plot, closed conformation", "value": "~78", "unit": "Å"}, {"measurement": "Rg of closed Plg", "setting": "[2]; SEC-SAXS comparison of closed GI and GII (Figure 5)", "value": "31.8 ± 0.6", "unit": "Å"}, {"measurement": "Rg (radius of gyration)", "setting": "[2]; closed conformation (Figure 1)", "value": "31.7 ± 0.11", "unit": "Å"}, {"measurement": "Rg (radius of gyration)", "setting": "[2]; [7]", "value": "48.8 ± 0.9", "unit": "Å"}]}, {"molecule": "NCCCCCC(=O)O", "note": "[EACA, ε-aminocaproic acid]", "values": [{"measurement": "Hill slope", "setting": "[1]; EACA titration 0–20 mM, Plg GII, positive cooperativity", "value": 1.5}, {"measurement": "Fold (GII/GI) of Kopen", "setting": "[1]", "value": 1.75}, {"measurement": "Kopen for GII higher than for GI", "setting": "[1]", "value": "~ 1.75 fold"}, {"measurement": "Kopen of EACA relative to TXA, GII", "setting": "[1]; Plg GII", "value": "~ 3 fold"}, {"measurement": "Kopen of EACA relative to TXA, GII", "setting": "[1]; Plg GII, listed as ε-aminocaproic acid (EACA)", "value": "approximately three times greater than that of tranexamic acid (TXA)"}, {"measurement": "Kopen fold lower than L-lysine", "setting": "[1]; Plg GII", "value": 20, "unit": "fold"}, {"measurement": "Kopen", "setting": "[1]", "value": "0.35 mM and 0.35 ± 0.02 mM"}, {"measurement": "Kopen of EACA relative to TXA, GI", "setting": "[3]; Plg GI, EACA versus TXA", "value": "~ 3 fold"}, {"measurement": "Kopen", "setting": "[3]", "value": "0.20 ± 0.01", "unit": "mM"}, {"measurement": "Kopen (previously reported)", "setting": "[4]", "value": 0.45, "unit": "mM"}, {"measurement": "plasma concentration at therapeutic dosage", "setting": "[5]", "value": "~ 10 mM"}, {"measurement": "Kactivation higher than Kopen", "setting": "[6]", "value": "> 8", "unit": "fold"}]}, {"molecule": "398NPSAPRELKEQQDSPGNKDFLQSLKGFPRGDKLFGPDLKLVPPMEEDYPQFGSPK452 [NK55, peptide corresponding to the last 55 residues of α2AP]", "values": [{"measurement": "Plg conformational change (efficacy in words)", "setting": "[1]; Plg GII", "value": "confers a higher efficiency in inducing conformational change"}, {"measurement": "more efficacious than CK10 (Kopen)", "setting": "[1]; Plg GII, versus CK10", "value": "~ 10 fold"}, {"measurement": "more efficacious than L-lysine (Kopen)", "setting": "[1]; Plg GII, versus L-lysine", "value": "~ 100 fold"}, {"measurement": "Kopen", "setting": "[1]", "value": "0.08 ± 0.05", "unit": "mM"}]}, {"molecule": "NC[C@H]1CC[C@H](C(=O)O)CC1", "note": "[TXA, tranexamic acid]", "values": [{"measurement": "Fold (GII/GI) of Kopen", "setting": "[1]", "value": 1.76}, {"measurement": "Kopen for GII higher than for GI", "setting": "[1]", "value": "~ 1.75 fold"}, {"measurement": "Plg conformational change (efficacy in words)", "setting": "[1]; Plg GII", "value": "most efficacious ligand"}, {"measurement": "Kopen fold lower than L-lysine", "setting": "[1]; Plg GII", "value": 60, "unit": "fold"}, {"measurement": "Kopen", "setting": "[1]", "value": "0.12 ± 0.008", "unit": "mM"}, {"measurement": "Kopen", "setting": "[3]", "value": "0.068 ± 0.002", "unit": "mM"}, {"measurement": "plasma concentration at therapeutic dosage", "setting": "[5]", "value": "~ 1 mM"}, {"measurement": "Kactivation higher than Kopen", "setting": "[6]", "value": "> 3.5", "unit": "fold"}]}]}
